*1 amine or outer side, *2 acyl side, *3 side chain or, on linkers, in order; H or OH if unused. Where a SMILES comes first, the peptide text is derived from it. Bridges are numbered along the chain shown (N, C = ends). [ ]: non-standard residue; d: D form. ξ: configuration not given here. Trp(1-CH2COOH) = N[C@@H](Cc1cn(CC(=O)O)c2ccccc12)C(=O)O; Phe(3,4,5-F3) = N[C@@H](Cc1cc(F)c(F)c(F)c1)C(=O)O; X6 = NC(=O)CCC(=O)[C@H](CSCC(=O)[*:2])N[*:1]; Phe(4-F) = N[C@@H](Cc1ccc(F)cc1)C(=O)O; d(cisHyp) = O=C(O)[C@H]1C[C@@H](O)CN1; Hyp = O=C(O)[C@@H]1C[C@@H](O)CN1; NMeF = CN[C@@H](Cc1ccccc1)C(=O)O; X1 = O=C([C@H]1COCCN1[*:1])[*:2]; dHyp = O=C(O)[C@H]1C[C@H](O)CN1; NMehSer = CN[C@@H](CCO)C(=O)O; NMeNle = CCCC[C@H](NC)C(=O)O; NMeM = CN[C@@H](CCSC)C(=O)O; NMeV = CN[C@H](C(=O)O)C(C)C; dPip = O=C(O)[C@H]1CCCCN1; hSer = N[C@@H](CCO)C(=O)O; NMeA = CN[C@@H](C)C(=O)O; Orn = NCCC[C@H](N)C(=O)O; dThz = O=C(O)[C@H]1CSCN1; Dab = NCC[C@H](N)C(=O)O; Dap = NC[C@H](N)C(=O)O; ξC = NC(CS)C(=O)O

One experiment deals with T1, Human PD-L1/PD-1 (Homo sapiens, UniProt Q9NZQ7).
T1 construct: TVMV protease cleavage site (C); made in house; host or cells: HEK293T cells
T1 sequence (Q9NZQ7 with tags, fused parts or gaps): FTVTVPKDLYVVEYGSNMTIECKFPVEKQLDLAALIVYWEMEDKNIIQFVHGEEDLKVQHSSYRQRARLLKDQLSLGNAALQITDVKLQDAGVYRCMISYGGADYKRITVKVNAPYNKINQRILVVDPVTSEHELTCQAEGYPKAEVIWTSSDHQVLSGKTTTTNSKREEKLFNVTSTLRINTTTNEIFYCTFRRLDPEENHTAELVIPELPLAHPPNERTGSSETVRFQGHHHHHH
The experiment can be described thus: HTRF Human PD-L1/PD-1 binding assay (PD-1-Ig/PD-L1-His). The settings on record: PD-L1-His 10 nM, PD-1-Ig 20 nM; class symbol; read-out: HTRF Human PD-L1/PD-1 Binding Assay IC50 Range. In outline: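 HTRF competition using HEK293T-expressed human PD-1(25-167)-Ig at 20 nM and PD-L1(18-239)-His at 10 nM, compound incubated first with PD-L1 for 15 min, then with PD-1 for 15 min. Signal read as 665/620 nm ratio 30 min after adding Eu anti-Ig and APC anti-His antibodies.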
Consider `CCCC[C@H]1C(=O)N2CCC[C@@H]2C(=O)N[C@@H](CC(=O)O)C(=O)N[C@@H](C(C)C)C(=O)N(C)[C@@H](Cc2ccccc2)C(=O)N[C@@H](Cc2ccc(O)cc2)C(=O)N2CSC[C@@H]2C(=O)N[C@@H](Cc2c[nH]c3ccccc23)C(=O)N[C@@H](Cc2ccc(O)cc2)C(=O)N[C@@H](CC(C)C)C(=O)N[C@H](C(=O)NCC(N)=O)CSCC(=O)N[C@@H](Cc2ccccc2)C(=O)N(C)[C@@H](Cc2ccccc2)C(=O)N1C` [Example 10068] ({CH2CO}-F[NMeF][NMeNle][dP]DV[NMeF]Y[dThz]WYLCG-NH2; thioether N-13), for which the IC50 was in the range of 1 to 9.9 nM. With `CCCC[C@H]1C(=O)N2CCC[C@@H]2C(=O)N[C@@H](CC(=O)O)C(=O)N[C@@H](C(C)C)C(=O)N(C)[C@@H](C(C)C)C(=O)N[C@@H](CCC(N)=O)C(=O)N2CCC[C@@H]2C(=O)N[C@@H](Cc2c[nH]c3ccccc23)C(=O)N[C@@H](Cc2ccc(O)cc2)C(=O)N[C@@H](CC(C)C)C(=O)N[C@H](C(=O)NCC(N)=O)CSCC(=O)N[C@@H](Cc2ccc(F)cc2)C(=O)N(C)[C@@H](Cc2ccccc2)C(=O)N1C` [Example 9245] ({CH2CO}-[Phe(4-F)][NMeF][NMeNle][dP]DV[NMeV]Q[dP]WYLCG-NH2; thioether N-13), the IC50 lay within 1000 to 10000 nM. Consider `CCCC[C@H]1C(=O)N2CCC[C@@H]2C(=O)N[C@@H](CC(=O)O)C(=O)N[C@@H](C(C)C)C(=O)N(C)[C@@H](C(C)C)C(=O)N[C@@H](Cc2ccc(O)cc2)C(=O)N2CCCC[C@@H]2C(=O)N[C@@H](Cc2c[nH]c3ccccc23)C(=O)N[C@@H](Cc2ccc(O)cc2)C(=O)N[C@@H](CCCN)C(=O)N[C@H](C(=O)NCC(N)=O)CSCC(=O)N[C@@H](Cc2ccc(F)cc2)C(=O)N(C)[C@@H](Cc2ccccc2)C(=O)N1C` [Example 9244] ({CH2CO}-[Phe(4-F)][NMeF][NMeNle][dP]DV[NMeV]Y[dPip]WY[Orn]CG-NH2; thioether N-13), for which the IC50 is 1000 to 10000 nM.

`CCCC[C@H]1C(=O)N2C[C@H](O)C[C@@H]2C(=O)N[C@@H](CC(=O)O)C(=O)N[C@@H](C(C)C)C(=O)N(C)[C@@H](Cc2ccccc2)C(=O)N[C@@H](CCCN)C(=O)N2CCC[C@@H]2C(=O)N[C@@H](Cc2c[nH]c3ccccc23)C(=O)N[C@@H](Cc2ccc(O)cc2)C(=O)N[C@@H](CCOC)C(=O)N[C@H](C(=O)NCC(N)=O)CSCC(=O)N[C@@H](Cc2cc(F)c(F)c(F)c2)C(=O)N(C)[C@@H](Cc2ccccc2)C(=O)N1C` [Example 10191] ({CH2CO}-[Phe(3,4,5-F3)][NMeF][NMeNle][d(cisHyp)]DV[NMeF][Orn][dP]WY[hSer](Me)CG-NH2; thioether N-13): the IC50 lay within 1 to 9.9 nM. Same read-out and setting: to `CCCC[C@H]1C(=O)N2CSC[C@@H]2C(=O)N[C@@H](CN)C(=O)N[C@@H](C(C)C)C(=O)N(C)[C@@H](Cc2ccccc2)C(=O)N[C@@H](Cc2ccc(O)cc2)C(=O)N2CCC[C@@H]2C(=O)N[C@@H](Cc2c[nH]c3ccccc23)C(=O)N[C@@H](Cc2ccc(O)cc2)C(=O)N[C@@H](CC(C)C)C(=O)N[C@H](C(=O)NCC(N)=O)CSCC(=O)N[C@@H](Cc2ccccc2)C(=O)N(C)[C@@H](Cc2ccccc2)C(=O)N1C` [Example 10075] ({CH2CO}-F[NMeF][NMeNle][dThz][Dap]V[NMeF]Y[dP]WYLCG-NH2; thioether N-13) belongs 10 to 99.9 nM; to `CCCC[C@H]1C(=O)N2C[C@@H](O)C[C@@H]2C(=O)N[C@@H](CC(=O)O)C(=O)N[C@@H](C(C)C)C(=O)N(C)[C@@H](Cc2ccccc2)C(=O)N[C@@H](CCC(=O)O)C(=O)N2CCOC[C@@H]2C(=O)N[C@@H](Cc2cn(CC(=O)O)c3ccccc23)C(=O)N[C@@H](Cc2ccc(O)cc2)C(=O)N[C@@H](CCN)C(=O)N[C@H](C(=O)CCC(N)=O)CSCC(=O)N[C@@H](Cc2cc(F)c(F)c(F)c2)C(=O)N(C)[C@@H](Cc2ccccc2)C(=O)N1C` [Example 9271] (cyclo(DV[NMeF]E[X1][Trp(1-CH2COOH)]Y[Dab][X6][Phe(3,4,5-F3)][NMeF][NMeNle][dHyp])), 1 to 9.9 nM; to `CCCC[C@H]1C(=O)N2C[C@H](O)C[C@@H]2C(=O)N[C@@H](CC(=O)O)C(=O)N[C@@H](C(C)C)C(=O)N(C)[C@@H](Cc2ccccc2)C(=O)N[C@@H](CCC(=O)O)C(=O)N2C[C@@H](O)C[C@@H]2C(=O)N[C@@H](Cc2c[nH]c3ccccc23)C(=O)N[C@@H](Cc2ccc(O)cc2)C(=O)N[C@@H](CC(C)C)C(=O)N[C@H](C(=O)NCC(N)=O)CSCC(=O)N[C@@H](Cc2cc(F)c(F)c(F)c2)C(=O)N(C)[C@@H](Cc2ccccc2)C(=O)N1C` [Example 9373] ({CH2CO}-[Phe(3,4,5-F3)][NMeF][NMeNle][d(cisHyp)]DV[NMeF]E[dHyp]WYLCG-NH2; thioether N-13), 10 to 99.9 nM. For `CCCC[C@H]1C(=O)N2CCC[C@@H]2C(=O)N[C@@H](CC(=O)O)C(=O)N[C@@H](C)C(=O)N(C)[C@@H](Cc2ccccc2)C(=O)N[C@@H](Cc2ccc(O)cc2)C(=O)N2CCCC[C@@H]2C(=O)N[C@@H](Cc2c[nH]c3ccccc23)C(=O)N[C@@H](Cc2ccc(O)cc2)C(=O)N[C@@H](CC(C)C)C(=O)N[C@H](C(=O)NCC(N)=O)CSCC(=O)N[C@@H](Cc2ccccc2)C(=O)N(C)[C@@H](Cc2ccccc2)C(=O)N1C` [Example 10087] ({CH2CO}-F[NMeF][NMeNle][dP]DA[NMeF]Y[dPip]WYLCG-NH2; thioether N-13), the IC50 lay in the range of 10 to 99.9 nM. Still for that read-out and setting: for `CCCC[C@H]1C(=O)N[C@@H](CC(N)=O)C(=O)N2CCC[C@H]2C(=O)N[C@@H](CO)C(=O)N[C@@H](CCO)C(=O)N2C[C@H](O)C[C@H]2C(=O)N[C@@H](Cc2c[nH]c3ccccc23)C(=O)N[C@@H](CCN)C(=O)N[C@@H](Cc2c[nH]c3ccccc23)C(=O)N(C)[C@@H](C)C(=O)N(C)[C@@H](C)C(=O)N[C@@H](CCCNC(=N)N)C(=O)NC(C(=O)NCC(N)=O)CSCC(=O)N[C@@H](Cc2ccc(O)cc2)C(=O)N1C` (some centres unmarked) [Example 10200] ({CH2CO}-Y[NMeNle]NPS[hSer][Hyp]W[Dab]W[NMeA][NMeA]R[ξC]G-NH2; thioether N-14) the value was 1000 to 10000 nM.

The experiment is the same for the next values; noted with them: PD-L1-His 10 nM, PD-1-Ig 20 nM; read-out: HTRF Human PD-L1/PD-1 Binding Assay IC50.
In the case of `CCCC[C@H]1C(=O)N(C)[C@@H](CCOC)C(=O)N[C@@H](CC(C)C)C(=O)N[C@H](C(=O)NCC(N)=O)CSCC(=O)N[C@@H](Cc2ccc(O)cc2)C(=O)N(C)[C@@H](C)C(=O)N[C@@H](CC(N)=O)C(=O)N2CCC[C@H]2C(=O)N[C@@H](Cc2c[nH]cn2)C(=O)N[C@@H](CCC(N)=O)C(=O)N2C[C@H](O)C[C@H]2C(=O)N[C@@H](Cc2c[nH]c3ccccc23)C(=O)NCC(=O)N[C@@H](Cc2c[nH]c3ccccc23)C(=O)N1C` [Example 10143] ({CH2CO}-Y[NMeA]NPHQ[Hyp]WGW[NMeNle][NMehSer](Me)LCG-NH2; thioether N-14), the IC50 amounted to 10.9 nM.

Regarding `CSCC[C@H]1C(=O)N2C[C@H](O)C[C@H]2C(=O)N[C@@H](CC(N)=O)C(=O)N[C@@H](C(C)C)C(=O)N(C)[C@@H](Cc2ccccc2)C(=O)N[C@@H](Cc2ccc(O)cc2)C(=O)N2C[C@H](O)C[C@H]2C(=O)N[C@@H](Cc2c[nH]c3ccccc23)C(=O)N[C@@H](Cc2ccc(O)cc2)C(=O)N[C@@H](CC(C)C)C(=O)N[C@H](C(=O)NCC(N)=O)CSCC(=O)N[C@@H](Cc2ccccc2)C(=O)N(C)[C@@H](Cc2ccccc2)C(=O)N1C` [Example 9167] ({CH2CO}-F[NMeF][NMeM][Hyp]NV[NMeF]Y[Hyp]WYLCG-NH2; thioether N-13), the IC50 is 1000 nM.

For the origin of these results see patent publication US10538555B2, “Macrocyclic inhibitors of the PD-1/PD-L1 and CD80(B7-1)/PD-L1 protein/protein interactions” (BRISTOL-MYERS SQUIBB COMPANY, priority 2014, dated 2020).
